In PubChem BioAssay (NCI):
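GI50 = concentration required for 50% inhibition of growth. TGI: total growth inhibition.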

Tests used:
Assay in all cases: NCI anticancer screen, dose series, 384-well format
SF-295 CNS = system: SF-295 CNS
OVCAR-8 ovarian = system: OVCAR-8 ovarian
HCT-15 colon = system: HCT-15 colon
M14 melanoma = system: M14 melanoma
MDA-MB-231 breast = system: MDA-MB-231 breast
PC-3 prostate = system: PC-3 prostate
CAKI-1 renal = system: CAKI-1 renal
MDA-MB-468 breast = system: MDA-MB-468 breast
EKVX NSCLC = system: EKVX NSCLC
HOP-92 NSCLC = system: HOP-92 NSCLC
HCT-116 colon = system: HCT-116 colon
MCF7 breast = system: MCF7 breast
OVCAR-3 ovarian = system: OVCAR-3 ovarian
HS 578T breast = system: HS 578T breast
MOLT-4 leukemia = system: MOLT-4 leukemia
NCI-H522 lung = system: NCI-H522 lung
MDA-MB-435 melanoma = system: MDA-MB-435 melanoma
K-562 leukemia = system: K-562 leukemia
SK-MEL-28 melanoma = system: SK-MEL-28 melanoma
HT29 colon = system: HT29 colon
HOP-62 NSCLC = system: HOP-62 NSCLC
ACHN renal = system: ACHN renal
DU-145 prostate = system: DU-145 prostate
NCI-H460 NSCLC = system: NCI-H460 NSCLC
SW-620 colon = system: SW-620 colon
NCI-H226 lung = system: NCI-H226 lung
IGROV1 ovarian = system: IGROV1 ovarian
CCRF-CEM leukemia = system: CCRF-CEM leukemia
RXF 393 renal = system: RXF 393 renal
UACC-62 melanoma = system: UACC-62 melanoma
NCI/ADR-RES ovarian = system: NCI/ADR-RES ovarian
MALME-3M melanoma = system: MALME-3M melanoma
HL-60(TB) leukemia = system: HL-60(TB) leukemia
SF-268 CNS = system: SF-268 CNS
SNB-19 CNS = system: SNB-19 CNS
COLO 205 colon = system: COLO 205 colon
SK-MEL-5 melanoma = system: SK-MEL-5 melanoma
A549 NSCLC = system: A549 NSCLC
U251 glioblastoma = system: U251 glioblastoma
UO-31 renal = system: UO-31 renal
SR leukemia = system: SR leukemia
NCI-H322M lung = system: NCI-H322M lung
KM12 colon = system: KM12 colon
NCI-H23 lung = system: NCI-H23 lung
UACC-257 melanoma = system: UACC-257 melanoma
786-0 renal = system: 786-0 renal
SNB-75 CNS = system: SNB-75 CNS
SK-OV-3 ovarian = system: SK-OV-3 ovarian
T-47D breast = system: T-47D breast
BT-549 breast = system: BT-549 breast
SN12C renal = system: SN12C renal
TK-10 renal = system: TK-10 renal
RPMI-8226 leukemia = system: RPMI-8226 leukemia
A498 renal = system: A498 renal
LOX IMVI melanoma = system: LOX IMVI melanoma
OVCAR-4 ovarian = system: OVCAR-4 ovarian
SF-539 CNS = system: SF-539 CNS
HCC-2998 colon = system: HCC-2998 colon
OVCAR-5 ovarian = system: OVCAR-5 ovarian

Cc1sc2c(c1C)C(c1ccc(Cl)cc1)=N[C@@H](CC(=O)Nc1ccc(O)cc1)c1nnc(C)n1-2
GI50 (SF-295 CNS): 0.803 µM
TGI (SF-295 CNS): 13.1 µM
GI50 (OVCAR-8 ovarian): 0.118 µM
TGI (OVCAR-8 ovarian): 1.57 µM
GI50 (HCT-15 colon): 0.247 µM
TGI (HCT-15 colon): 7.33 µM
GI50 (M14 melanoma): 0.262 µM
TGI (M14 melanoma): 12.1 µM
GI50 (MDA-MB-231 breast): 0.0816 µM
TGI (MDA-MB-231 breast): 14.3 µM
GI50 (PC-3 prostate): 0.228 µM
TGI (PC-3 prostate): 14.6 µM
GI50 (CAKI-1 renal): 0.0449 µM
TGI (CAKI-1 renal): 7.15 µM
GI50 (MDA-MB-468 breast): 0.175 µM
TGI (MDA-MB-468 breast): 1.94 µM
GI50 (EKVX NSCLC): 3.09 µM
TGI (EKVX NSCLC): 20.1 µM
GI50 (HOP-92 NSCLC): 0.156 µM
TGI (HOP-92 NSCLC): 11.5 µM
GI50 (HCT-116 colon): 0.235 µM
TGI (HCT-116 colon): 12.5 µM
GI50 (MCF7 breast): 0.0543 µM
TGI (MCF7 breast): 12.4 µM
GI50 (OVCAR-3 ovarian): 0.0666 µM
TGI (OVCAR-3 ovarian): 1.91 µM
GI50 (HS 578T breast): 0.0372 µM
TGI (HS 578T breast): 0.355 µM
GI50 (MOLT-4 leukemia): 0.061 µM
TGI (MOLT-4 leukemia): 1.28 µM
GI50 (NCI-H522 lung): 0.0624 µM
TGI (NCI-H522 lung): 0.73 µM
GI50 (MDA-MB-435 melanoma): 1.03 µM
TGI (MDA-MB-435 melanoma): 12.6 µM
GI50 (K-562 leukemia): 0.133 µM
TGI (K-562 leukemia): 13.4 µM
GI50 (SK-MEL-28 melanoma): 0.581 µM
TGI (SK-MEL-28 melanoma): 15.7 µM
GI50 (HT29 colon): 0.104 µM
TGI (HT29 colon): 2.08 µM
GI50 (HOP-62 NSCLC): 0.158 µM
TGI (HOP-62 NSCLC): 3.9 µM
GI50 (ACHN renal): 0.877 µM
TGI (ACHN renal): 15.6 µM
GI50 (DU-145 prostate): 1.17 µM
TGI (DU-145 prostate): 28 µM
GI50 (NCI-H460 NSCLC): 0.337 µM
TGI (NCI-H460 NSCLC): 14.9 µM
GI50 (SW-620 colon): 1.18 µM
TGI (SW-620 colon): 18.5 µM
GI50 (NCI-H226 lung): 0.0983 µM
TGI (NCI-H226 lung): 8.21 µM
GI50 (IGROV1 ovarian): 0.158 µM
TGI (IGROV1 ovarian): 4.13 µM
GI50 (CCRF-CEM leukemia): 0.106 µM
TGI (CCRF-CEM leukemia): 8 µM
GI50 (RXF 393 renal): 0.74 µM
TGI (RXF 393 renal): 4.39 µM
GI50 (UACC-62 melanoma): 0.0422 µM
TGI (UACC-62 melanoma): 2.96 µM
GI50 (NCI/ADR-RES ovarian): 1.89 µM
TGI (NCI/ADR-RES ovarian): 8.45 µM
GI50 (MALME-3M melanoma): 0.194 µM
TGI (MALME-3M melanoma): 3.6 µM
GI50 (HL-60(TB) leukemia): 0.0114 µM
TGI (HL-60(TB) leukemia): 0.0446 µM
GI50 (SF-268 CNS): 0.627 µM
TGI (SF-268 CNS): 12.8 µM
GI50 (SNB-19 CNS): 0.355 µM
TGI (SNB-19 CNS): 16.7 µM
GI50 (COLO 205 colon): 0.164 µM
TGI (COLO 205 colon): 2.09 µM
GI50 (SK-MEL-5 melanoma): 0.304 µM
TGI (SK-MEL-5 melanoma): 10.7 µM
GI50 (A549 NSCLC): 0.596 µM
TGI (A549 NSCLC): 14.7 µM
GI50 (U251 glioblastoma): 0.644 µM
TGI (U251 glioblastoma): 14.6 µM
GI50 (UO-31 renal): 0.632 µM
TGI (UO-31 renal): 14.4 µM
GI50 (SR leukemia): 0.0117 µM
TGI (SR leukemia): 0.0588 µM
GI50 (NCI-H322M lung): 0.219 µM
TGI (NCI-H322M lung): 14.3 µM
GI50 (KM12 colon): 0.471 µM
TGI (KM12 colon): 16.4 µM
GI50 (NCI-H23 lung): 0.213 µM
TGI (NCI-H23 lung): 2.86 µM
GI50 (UACC-257 melanoma): 0.174 µM
TGI (UACC-257 melanoma): 16.4 µM
GI50 ([…]-0 renal): 0.114 µM
TGI (786-0 renal): 12.6 µM
GI50 (SNB-75 CNS): 0.367 µM
TGI (SNB-75 CNS): 13.7 µM
GI50 (SK-OV-3 ovarian): 0.173 µM
TGI (SK-OV-3 ovarian): 5.48 µM
GI50 (T-47D breast): 0.252 µM
TGI (T-47D breast): 15.3 µM
GI50 (BT-549 breast): 0.0417 µM
TGI (BT-549 breast): 1.78 µM
GI50 (SN12C renal): 0.42 µM
TGI (SN12C renal): 13.1 µM
GI50 (TK-10 renal): 0.154 µM
TGI (TK-10 renal): 3.7 µM
GI50 (RPMI-8226 leukemia): 0.0231 µM
TGI (RPMI-8226 leukemia): 0.153 µM
GI50 (A498 renal): 0.38 µM
TGI (A498 renal): 10.4 µM
GI50 (LOX IMVI melanoma): 0.108 µM
TGI (LOX IMVI melanoma): 0.266 µM
GI50 (OVCAR-4 ovarian): 0.128 µM
TGI (OVCAR-4 ovarian): 0.798 µM
GI50 (SF-539 CNS): 0.292 µM
TGI (SF-539 CNS): 12.5 µM
GI50 (HCC-2998 colon): 0.107 µM
TGI (HCC-2998 colon): 1.05 µM

O=c1[nH]cc(F)c(=O)[nH]1
GI50 (SF-295 CNS): 22 µM
GI50 (OVCAR-8 ovarian): 37.2 µM
GI50 (HCT-15 colon): 5.28 µM
GI50 (M14 melanoma): 65.7 µM
GI50 (MDA-MB-231 breast): > 89.7 µM
GI50 (PC-3 prostate): > 80.5 µM
GI50 (CAKI-1 renal): 9.98 µM
GI50 (MDA-MB-468 breast): 41.8 µM
TGI (MDA-MB-468 breast): > 86.2 µM
GI50 (HCT-116 colon): 3.94 µM
GI50 (MCF7 breast): 2.58 µM
GI50 (OVCAR-3 ovarian): 6.27 µM
TGI (OVCAR-3 ovarian): > 86.5 µM
GI50 (HS 578T breast): 12.1 µM
GI50 (MOLT-4 leukemia): 1.64 µM
TGI (MOLT-4 leukemia): 3.26 µM
GI50 (NCI-H522 lung): 55.6 µM
GI50 (MDA-MB-435 melanoma): 16.8 µM
GI50 (K-562 leukemia): 18.7 µM
GI50 (SK-MEL-28 melanoma): 19.3 µM
GI50 (HT29 colon): 7.03 µM
GI50 (HOP-62 NSCLC): 13.6 µM
GI50 (ACHN renal): 11.6 µM
GI50 (DU-145 prostate): 5.49 µM
GI50 (NCI-H460 NSCLC): 3.23 µM
TGI (NCI-H460 NSCLC): 38.8 µM
GI50 (SW-620 colon): 25 µM
GI50 (IGROV1 ovarian): > 30.6 µM
GI50 (CCRF-CEM leukemia): > 27.9 µM
GI50 (RXF 393 renal): 27.7 µM
GI50 (UACC-62 melanoma): 8.73 µM
GI50 (MALME-3M melanoma): 85.5 µM
GI50 (HL-60(TB) leukemia): 11 µM
GI50 (SF-268 CNS): 45.2 µM
GI50 (SNB-19 CNS): 51.7 µM
GI50 (COLO 205 colon): 1.45 µM
GI50 (SK-MEL-5 melanoma): 5.77 µM
GI50 (A549 NSCLC): 2.21 µM
GI50 (U251 glioblastoma): 22 µM
GI50 (UO-31 renal): 8.23 µM
GI50 (SR leukemia): 2 µM
TGI (SR leukemia): 6.89 µM
GI50 (NCI-H322M lung): 32.7 µM
GI50 (KM12 colon): 6.5 µM
GI50 (NCI-H23 lung): 29.6 µM
GI50 ([…]-0 renal): 9.77 µM
GI50 (SNB-75 CNS): 7.12 µM
TGI (SNB-75 CNS): > 29.7 µM
GI50 (SK-OV-3 ovarian): > 69.9 µM
GI50 (T-47D breast): 78.3 µM
GI50 (BT-549 breast): 3.96 µM
GI50 (SN12C renal): 14.5 µM
GI50 (TK-10 renal): 35.1 µM
GI50 (RPMI-8226 leukemia): 0.162 µM
TGI (RPMI-8226 leukemia): 0.476 µM
GI50 (A498 renal): 5.89 µM
GI50 (LOX IMVI melanoma): 17.1 µM
GI50 (SF-539 CNS): 4.2 µM
GI50 (OVCAR-5 ovarian): 13.1 µM
GI50 (HCC-2998 colon): 13.6 µM
